Assay results taken from patent US7803803B2, “Tetrahydrofuro[3,2-B] pyrrol-3-ones as cathepsin K inhibitors” (Amura Therapeutics Limited, priority 2007, dated 2010).

Experiments:
[1] = Plasma incubations (human plasma stability); type: in vitro ADME; conditions: 37° C. Further: tested at 25 µM.
Method: Aliquots were removed at 2 and 60 minutes and quenched with an equal volume of cold acetonitrile. After mixing vigorously, the precipitated protein matter was removed by filtration (Multiscreen Solvinert filter plates, Millipore, Bedford, Mass., USA) and the filtrate analysed by reverse phase HPLC with mass spectrometric detection, using single ion monitoring of the [M+H]^+ species. Metabolic turnover was determined by comparison of peak areas from the ion chromatograms of the parent compound at 2 and 60 minutes and expressed as percent remaining at 1 hour.

human osteoclasts [2] = experiment: Human osteoclast resorption assay; type: cell-based; conditions: Homo sapiens, Osteoclast, 48 h, 1 □ M, read-out: Cell-based % Inh. @ 1 □ M Human
Method: Bone resorption was studied using a model where human osteoclast precursor cells were cultured on bovine bone slices for 9 days and allowed to differentiate into bone-resorbing osteoclasts. The formed mature osteoclasts were then allowed to resorb bone. The assay was performed by Pharmatest Services Ltd, Itäinen Pitkakatu 4C, Turku, Finland. After the culture period, bone collagen degradation products were quantified from the culture medium as an index of bone resorption. Inhibitor compounds were added into the cell cultures after the differentiation period and their effects on the resorbing activity of mature osteoclasts were determined. The studies included a baseline group without added compounds and a positive control group where a potent cathepsin K inhibitor E-64 was added.
Human peripheral blood monocytes were suspended to culture medium and allowed to attach to bovine bone slices. The bone slices were transferred into 96-well tissue culture plates containing culture medium with appropriate amounts of important growth factors favouring osteoclast differentiation, including M-CSF, RANK-ligand and TGF-[…]. The cells were incubated in a CO2 incubator in humidified atmosphere of 95% air and 5% carbon dioxide at 37° C. At day 7 when osteoclast differentiation was complete, the culture medium was replaced with culture medium containing conditions favouring osteoclast activity. The cell culture was continued for an additional 2 days, during which the formed mature osteoclasts were allowed to resorb bone in the presence of vehicle, control inhibitor (E64) or test compounds. At the end of the culture, bone collagen degradation products released into the culture medium were determined using a commercially available ELISA method (CrossLaps® for culture, Nordic Bioscience, Herlev, Denmark) as an index of bone resorption (see Bagger, Y. Z. et al, J. Bone. Miner. Res. 14 (suppl. 1), S370).

LogD determinations = type: physicochemical; conditions: Ion-count method; for logD at 1 h: 1-octanol/phosphate buffered saline, pH 7.4, pH 7.4
Method: LogD(PBS) determinations were performed in 96 well microtitre plates using a miniaturised “shake-flask” method. […] The plates were then capped and mixed vigorously for 1 hour on a microtitre plate shaker, after which they were left to stand, allowing the PBS and octanol phases to separate. The PBS layer was analysed by reverse phase HPLC with mass spectrometric detection, using single ion monitoring of the [M+H]^+ species.
Where AUCstd and AUCpbs are the peak areas from the standard and test ion chromatograms respectively.

cathepsin K = molecular target: T1, cathepsin K (Homo sapiens, UniProt P43235); experiment: In vitro cathepsin Ki inhibition measurements; type: biochemical; set-up: purchased B. Turk, Josef Stefan Institute, Ljubljana, Slovenia; conditions: human recombinant cathepsin K; read-out: In vitro Ki (nM) vs Cath K
T1 sequence (P43235 115-329): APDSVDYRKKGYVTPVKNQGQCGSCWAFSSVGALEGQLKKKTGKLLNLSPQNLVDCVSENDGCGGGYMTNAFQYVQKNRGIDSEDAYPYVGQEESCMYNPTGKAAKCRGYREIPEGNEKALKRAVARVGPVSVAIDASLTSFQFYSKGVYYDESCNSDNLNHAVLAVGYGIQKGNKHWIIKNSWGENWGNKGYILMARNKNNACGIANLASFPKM
Method: Stock solutions of substrate or inhibitor were made up to 10 mM in 100% dimethylsulfoxide (DMSO) (Rathburns, Glasgow, U.K.) and diluted as appropriately required. In all cases the DMSO concentration in the assays was maintained at less than 1% (vol./vol.). The equilibrium inhibition constants (Ki^SS) for each compound were measured under steady-state conditions monitoring enzyme activity as a function of inhibitor concentration. The values were calculated on the assumption of pure competitive behaviour (Cornish-Bowden, A. Fundamentals of enzyme kinetics Portland Press; 1995, 93-128). Human recombinant cathepsin K (0.25 nM final; B. Turk, Josef, Stefan Institute, Ljubljana, Slovenia), was routinely assayed in 100 mM sodium acetate; pH 5.5 containing 1 mM EDTA, 10 mM L-cysteine and 1.8 μM Z-Leu-Arg-AMC ([S]═KM).
The apparent inhibition constant (Ki) for each compound was determined on the basis that inhibition was reversible and occurred by a pure-competitive mechanism. The Ki values were calculated, from the dependence of enzyme activity as a function of inhibitor concentration, by direct regression analysis (Prism v 3.02) using Equation 2 (Cornish-Bowden, A., 1995).
In situations where the apparent dissociation constant (Ki^app) approached the enzyme concentrations, the Ki^app values were calculated using a quadratic solution in the form described by Equation 3 (Morrison, J. F. Trends Biochem. Sci., 7, 102-105, 1982; Morrison, J. F. Biochim. Biophys. Acta, 185, 269-286, 1969; Stone, S. R. and Hofsteenge, J. Biochemistry, 25, 4622-4628, 1986).
Curves were fitted by non-linear regression analysis (Prism) using a fixed value for the enzyme concentration. Equation 4 was used to account for the substrate kinetics, where ‘Ki’ is the inhibition constant, ‘[So]’ is the initial substrate concentration and ‘KM^app’ is the apparent macroscopic binding (Michaelis) constant for the substrate (Morrison, 1982).

human osteoclasts [3] = conditions: human osteoclast, literature value; cited from earlier work
[4] = UV method, literature value; cited from earlier work

Structure (SMILES)	Human Plasma Stability % rem. @ 1 h [1]	inhibition at 1 µM (human osteoclasts [2])	logD at 1 h (LogD determinations)	LogD pH 7.4 (LogD determinations; pH 7.4)	Ki (cathepsin K)	Cell-based % Inh. @ 1 □ M Human (Lit.) (human osteoclasts [3])	LogD pH 7.4 (Lit.) [4]
CCCN1CCC(c2ccc(C(=O)N[C@@H](CC(C)(C)C)C(=O)N3C[C@@H](OC)[C@H]4OCC(=O)[C@H]43)cc2)CC1 [Example 38, N—((S)-1-((3aS,6R,6aS)-6-methoxy-3-oxodihydro-2H-furo[3,2-b]pyrrol-4(5H,6H,6aH)-yl)-4,4-dimethyl-1-oxopentan-2-yl)-4-(1-propylpiperidin-4-yl)benzamide]	99%	63 to 88%	> 0.8	1.12	8.2 nM	–	–
CC(C)C[C@H](NC(=O)c1ccc(C(C)(C)C)cc1)C(=O)N1CC[C@H]2OCC(=O)[C@H]21 [reference compound]	75%	–	1.36	–	–	Lit. 60%	–
CC(C)C[C@H](NC(=O)c1ccc(N2CCN(C)CC2)cc1)C(=O)N1CC[C@H]2OCC(=O)[C@H]21 [reference compound]	95%	–	0.56	–	8.7 nM	–	0.04
